In PubChem BioAssay AID1259407 (Chemical Carcinogenesis Research Information System (CCRIS), 2018) one finds mutagenic call data, which are given here for eight compounds.

Each structure is given as a SMILES string. Active and inactive are the calls of the source. No rule for the calls is given here.

The test system of this data set is CCRIS mutagenicity, Ames/micronucleus/aberration tests. In words: CCRIS mutagenicity studies.
Where [1] appears, read: Test System: AMES SALMONELLA TYPHIMURIUM, Strain/Indicator: TA98, Metabolic Activation: NONE, Method: STANDARD PLATE.
Where [2] appears, read: Test System: AMES SALMONELLA TYPHIMURIUM, Strain/Indicator: TA100, Metabolic Activation: NONE, Method: STANDARD PLATE.
Where [3] appears, read: Test System: AMES SALMONELLA TYPHIMURIUM, Strain/Indicator: TA1535, Metabolic Activation: NONE, Method: STANDARD PLATE.
[4] abbreviates: Test System: AMES SALMONELLA TYPHIMURIUM, Strain/Indicator: TA1537, Metabolic Activation: NONE, Method: STANDARD PLATE.
Where [5] appears, read: Test System: AMES SALMONELLA TYPHIMURIUM, Strain/Indicator: TA98, Metabolic Activation: NONE, Method: PREINCUBATION
Setting [6] is: Test System: AMES SALMONELLA TYPHIMURIUM, Strain/Indicator: TA100, Metabolic Activation: NONE, Method: PREINCUBATION
The mark [7] stands for this setting: Test System: AMES SALMONELLA TYPHIMURIUM, Strain/Indicator: TA1535, Metabolic Activation: NONE, Method: PREINCUBATION

Take `FC(Cl)C(F)(F)C(F)(F)Cl` (centres undefined): the mutagenic call is, setting by setting: under setting [1], “inactive; negative”; (Test System: AMES SALMONELLA TYPHIMURIUM, Strain/Indicator: TA98, Metabolic Activation: RAT LIVER S-9, PHENOBARBITAL, 5,6-BENZOFLAVONE, Method: STANDARD PLATE) “inactive; negative”; under setting [2], “inactive; negative”; (Test System: AMES SALMONELLA TYPHIMURIUM, Strain/Indicator: TA100, Metabolic Activation: RAT LIVER S-9, PHENOBARBITAL, 5,6-BENZOFLAVONE, Method: STANDARD PLATE) “inactive; negative”; under setting [3], “inactive; negative”; (Test System: AMES SALMONELLA TYPHIMURIUM, Strain/Indicator: TA1535, Metabolic Activation: RAT LIVER S-9, PHENOBARBITAL, 5,6-BENZOFLAVONE, Method: STANDARD PLATE) “inactive; negative”. Moreover, the mutagenic call by setting is: under setting [4], “inactive; negative”; (Test System: AMES SALMONELLA TYPHIMURIUM, Strain/Indicator: TA1537, Metabolic Activation: RAT LIVER S-9, PHENOBARBITAL, 5,6-BENZOFLAVONE, Method: STANDARD PLATE) “inactive; negative”; (Test System: ESCHERICHIA COLI, Strain/Indicator: WP2 UVR A, Metabolic Activation: NONE, Method: STANDARD PLATE) “inactive; negative”; (Test System: ESCHERICHIA COLI, Strain/Indicator: WP2 UVR A, Metabolic Activation: RAT LIVER S-9, PHENOBARBITAL, 5,6-BENZOFLAVONE, Method: STANDARD PLATE) “inactive; negative”; (Test System: UDS RAT HEPATOCYTES IN VIVO, Strain/Indicator: THYMIDINE INCORPORATION, Metabolic Activation: NONE, Method: INHALATION (6HR, NOSE-ONLY, 2-OR 16-HR HARVEST)/AUTORADIOGRAPHY) “inactive; negative”.

Turning to `COC1(O[C@H]2CC[C@H]3[C@@H]4CC[C@H]5C[C@@H]6S[C@@H]6C[C@]5(C)[C@H]4CC[C@]23C)CCCC1`, the mutagenic call under setting [1] is “inactive; negative”; the mutagenic call (Test System: AMES SALMONELLA TYPHIMURIUM, Strain/Indicator: TA98, Metabolic Activation: S-9, Method: STANDARD PLATE) is “inactive; negative”; the mutagenic call under setting [2] is “inactive; negative”; the mutagenic call (Test System: AMES SALMONELLA TYPHIMURIUM, Strain/Indicator: TA100, Metabolic Activation: S-9, Method: STANDARD PLATE) is “inactive; negative”; the mutagenic call (Test System: AMES SALMONELLA TYPHIMURIUM, Strain/Indicator: TA1537, Metabolic Activation: S-9, Method: STANDARD PLATE) is “inactive; negative”; the mutagenic call (Test System: E. COLI, Strain/Indicator: WP2 (HCR), Metabolic Activation: NONE, Method: STANDARD PLATE) was “inactive; negative”. Further, the mutagenic call (Test System: E. COLI, Strain/Indicator: WP2 (HCR), Metabolic Activation: S-9, Method: STANDARD PLATE) is “inactive; negative”.

Regarding `Cn1c(N)nc2cc3ccccc3cc21`, the mutagenic call (Test System: AMES SALMONELLA TYPHIMURIUM, Strain/Indicator: TA98, Metabolic Activation: RAT, LIVER, S-9, AROCLOR 1254A, Method: STANDARD PLATE) is “active; positive” and the mutagenic call (Test System: AMES SALMONELLA TYPHIMURIUM, Strain/Indicator: YG1024, Metabolic Activation: RAT, LIVER, S-9, AROCLOR 1254A, Method: STANDARD PLATE) is “active; positive”.

For the compound `Cc1ccccc1C(=O)Cl`, the mutagenic call under setting [5] was “inactive; negative”; the mutagenic call (Test System: AMES SALMONELLA TYPHIMURIUM, Strain/Indicator: TA98, Metabolic Activation: RAT LIVER S-9, PCB, Method: PREINCUBATION) was “active; positive”; the mutagenic call under setting [6] is “inactive; negative”; the mutagenic call (Test System: AMES SALMONELLA TYPHIMURIUM, Strain/Indicator: TA100, Metabolic Activation: RAT LIVER S-9, PCB, Method: PREINCUBATION) is “active; positive”; the mutagenic call (Test System: AMES SALMONELLA TYPHIMURIUM, Strain/Indicator: TA104, Metabolic Activation: NONE, Method: PREINCUBATION) is “inactive; negative”; the mutagenic call (Test System: AMES SALMONELLA TYPHIMURIUM, Strain/Indicator: TA104, Metabolic Activation: RAT LIVER S-9, PCB, Method: PREINCUBATION) is “active; positive”. Besides, the mutagenic call is “active; positive” (Test System: E.COLI, Strain/Indicator: WP2 UVRA, Metabolic Activation: NONE, Method: PREINCUBATION) and “active; positive” (Test System: E.COLI, Strain/Indicator: WP2 UVRA, Metabolic Activation: RAT LIVER S-9, PCB, Method: PREINCUBATION).

`Oc1ccc2c(O)c3ccccc3cc2c1O`: the mutagenic call is “inactive; negative” (Test System: AMES SALMONELLA TYPHIMURIUM, Strain/Indicator: TA98, Metabolic Activation: RAT, LIVER, S-9, AROCLOR 1254, Method: STANDARD PLATE); “inactive; negative” under setting [2]; “inactive; negative” (Test System: AMES SALMONELLA TYPHIMURIUM, Strain/Indicator: TA100, Metabolic Activation: RAT, LIVER, S-9, AROCLOR 1254, Method: STANDARD PLATE); “inactive; negative” under setting [3]; “inactive; negative” (Test System: AMES SALMONELLA TYPHIMURIUM, Strain/Indicator: TA1535, Metabolic Activation: RAT, LIVER, S-9, AROCLOR 1254, Method: STANDARD PLATE); “active; positive” under setting [4]. In addition, the mutagenic call (Test System: AMES SALMONELLA TYPHIMURIUM, Strain/Indicator: TA1538, Metabolic Activation: NONE, Method: STANDARD PLATE) is “inactive; negative” and the mutagenic call (Test System: AMES SALMONELLA TYPHIMURIUM, Strain/Indicator: TA1538, Metabolic Activation: RAT, LIVER, S-9, AROCLOR 1254, Method: STANDARD PLATE) is “inactive; negative”.

For `Cc1ccc(OCC2CO2)cc1` (centres undefined), the mutagenic call runs as follows: under setting [6], “active; positive”; (Test System: AMES SALMONELLA TYPHIMURIUM, Strain/Indicator: TA100, Metabolic Activation: RAT, LIVER, S-9, AROCLOR 1254 (10%), Method: PREINCUBATION) “active; positive”; (Test System: AMES SALMONELLA TYPHIMURIUM, Strain/Indicator: TA1535, Metabolic Activation: HAMSTER, LIVER, S-9, AROCLOR 1254 (10%), Method: PREINCUBATION) “active; positive”; under setting [7], “active; positive”; (Test System: AMES SALMONELLA TYPHIMURIUM, Strain/Indicator: TA1535, Metabolic Activation: RAT, LIVER, S-9, AROCLOR 1254 (10%), Method: PREINCUBATION) “active; positive”.

`CCCC(=O)Nc1ncnc2c1ncn2[C@@H]1O[C@@H]2COP(=O)(O)O[C@H]2[C@H]1OC(=O)CCC`: the mutagenic call is, setting by setting: under setting [5], “inactive; negative”; (Test System: AMES SALMONELLA TYPHIMURIUM, Strain/Indicator: TA98, Metabolic Activation: RAT, LIVER, S-9, KC-500, Method: PREINCUBATION) “inactive; negative”; under setting [6], “inactive; negative”; (Test System: AMES SALMONELLA TYPHIMURIUM, Strain/Indicator: TA100, Metabolic Activation: RAT, LIVER, S-9, KC-500, Method: PREINCUBATION) “inactive; negative”; under setting [7], “inactive; negative”; (Test System: AMES SALMONELLA TYPHIMURIUM, Strain/Indicator: TA1535, Metabolic Activation: RAT, LIVER, S-9, KC-500, Method: PREINCUBATION) “inactive; negative”. Also, the mutagenic call runs as follows: (Test System: AMES SALMONELLA TYPHIMURIUM, Strain/Indicator: TA1537, Metabolic Activation: NONE, Method: PREINCUBATION) “inactive; negative”; (Test System: AMES SALMONELLA TYPHIMURIUM, Strain/Indicator: TA1537, Metabolic Activation: RAT, LIVER, S-9, KC-500, Method: PREINCUBATION) “inactive; negative”; (Test System: AMES SALMONELLA TYPHIMURIUM, Strain/Indicator: TA1538, Metabolic Activation: NONE, Method: PREINCUBATION) “inactive; negative”; (Test System: AMES SALMONELLA TYPHIMURIUM, Strain/Indicator: TA1538, Metabolic Activation: RAT, LIVER, S-9, KC-500, Method: PREINCUBATION) “inactive; negative”; (Test System: E. COLI, Strain/Indicator: WP2 UVRA, Metabolic Activation: NONE, Method: PREINCUBATION) “inactive; negative”; (Test System: E. COLI, Strain/Indicator: WP2 UVRA, Metabolic Activation: RAT, LIVER, S-9, KC-500, Method: PREINCUBATION) “inactive; negative”.

Take `CC(=O)Oc1ccc2c(c1)OC1(C)OOC21C` (centres undefined): the mutagenic call under setting [6] was “active; positive”.
